Measurements from publication PMC4002244, “ACE2 deficiency increases NADPH‐mediated oxidative stress in the kidney” (Physiological Reports, 2014).

Assays:
[1] = system: kidney cortex NADPH oxidase activity; assay: Kidney cortex NADPH oxidase activity (lucigenin chemiluminescence) in ACE2KO mice after angiotensin receptor blockade; assay type: in vivo, mouse; conditions: for Kidney cortex NADPH oxidase activity, percent of WT controls: male ACE2KO C57BL/6 mice, 2 weeks
Procedure: NADPH oxidase activity in kidney cortex was measured using lucigenin (5 μmol/L) and NADPH (100 μmol/L) as previously described (Block et al. 2007). Light emission was recorded every 1 min over a 10‐min period at room temperature in a 20/20^n luminometer (Turner Biosystems, Sunnyvale, CA). Superoxide anion production was expressed as relative chemiluminescence (light) units (RLU)/μg protein. There was no measurable activity in the absence of NADPH. Protein content was measured using the BCA protein assay reagent (Pierce, Rockford, IL).
ACE2KO and control mice at the age of 20–30 weeks were treated with losartan (Triangle Compounding Pharmacy, Cary, NC) or placebo for 2 weeks. Losartan was administered to ACE2KO at two doses: 10 mg/kg/day (n = 4) and 30 mg/kg/day (n = 5) in drinking water in two separate experiments. Another group of ACE2KO (n = 6) and WT controls (n = 5 and n = 10) were given vehicle drug, with similar taste and consistency. Water bottles were weighed daily to document accurate drug consumption. At the end of 2 weeks of treatment with losartan, we proceeded to measure markers of oxidative stress as described above.
A separate group of male ACE2 knockout mice at 35 weeks of age underwent either sham operation (n = 8) or osmotic minipump (Alzet 1002) implantation to infuse the AT2 receptor blocker, PD123319 (2 mg/kg/day, n = 8) for 14 days. Pumps were implanted subcutaneously on the back between the shoulder blades and hips while animals were anesthetized by inhalation of isoflurane anesthetic. At the end of 2 weeks of treatment with PD123319, we proceeded to measure markers of oxidative stress as described above.

ACE2 = target: T1, ACE2 (Mus musculus, UniProt Q8R0I0); assay: Ex vivo Ang II degradation by kidney cortex lysates with ACE2 inhibitor; assay type: biochemical; conditions: WT lysates (6 μg protein, n = 5), MLN-4760 10^-6 mol/L, Ang II 10^-9 mol/L, PBS pH 7.4 with 5 μmol/L ZnCl2, 37°C, up to 24 h, Ang II by ELISA; P < 0.05 vs. WT without MLN-4760; similar to ACE2KO
T1 construct: from tissue; host or cells: kidney cortex of wild-type C57BL/6 mice (littermates of the ACE2KO mice)
Procedure: (§1) Kidney cortex lysates (from ACE2 KO and WT mice) corresponding to 6 μg of total protein were individually incubated with 10^−9mol/L angiotensin II (Sigma‐Aldrich, St. Louis, MO) by constant shaking for up to 24 h at 37°C in PBS pH 7.4 containing 5 μmol/L ZnCl2. The incubation was performed with or without addition of the specific ACE2 inhibitor, MLN‐4760 (10^−6mol/L). Following the incubation, samples were diluted 1/5 in EDTA‐containing buffer (0.1 mol/L phosphate buffer, pH 7.4 containing 0.15 mol/L NaCl, 1 mmol/L EDTA, 0.1% BSA) and immediately frozen. The quantity of Ang II in the diluted samples was measured using enzyme‐linked immunosorbent assay kits (SPIBio, Cayman Chemical). Angiotensin quantity in each sample was expressed as a percentage ratio of the Ang remaining after a given incubation time to the initial Ang load (100%).

[2] = Ex vivo degradation of exogenous Ang II in kidney cortex lysates; assay type: in vitro ADME, mouse; conditions: 6 μg protein, Ang II 10^-9 mol/L, PBS pH 7.4 with 5 μmol/L ZnCl2, 37°C, ELISA
Procedure: as §1

T1 sequence (Q8R0I0 18-805): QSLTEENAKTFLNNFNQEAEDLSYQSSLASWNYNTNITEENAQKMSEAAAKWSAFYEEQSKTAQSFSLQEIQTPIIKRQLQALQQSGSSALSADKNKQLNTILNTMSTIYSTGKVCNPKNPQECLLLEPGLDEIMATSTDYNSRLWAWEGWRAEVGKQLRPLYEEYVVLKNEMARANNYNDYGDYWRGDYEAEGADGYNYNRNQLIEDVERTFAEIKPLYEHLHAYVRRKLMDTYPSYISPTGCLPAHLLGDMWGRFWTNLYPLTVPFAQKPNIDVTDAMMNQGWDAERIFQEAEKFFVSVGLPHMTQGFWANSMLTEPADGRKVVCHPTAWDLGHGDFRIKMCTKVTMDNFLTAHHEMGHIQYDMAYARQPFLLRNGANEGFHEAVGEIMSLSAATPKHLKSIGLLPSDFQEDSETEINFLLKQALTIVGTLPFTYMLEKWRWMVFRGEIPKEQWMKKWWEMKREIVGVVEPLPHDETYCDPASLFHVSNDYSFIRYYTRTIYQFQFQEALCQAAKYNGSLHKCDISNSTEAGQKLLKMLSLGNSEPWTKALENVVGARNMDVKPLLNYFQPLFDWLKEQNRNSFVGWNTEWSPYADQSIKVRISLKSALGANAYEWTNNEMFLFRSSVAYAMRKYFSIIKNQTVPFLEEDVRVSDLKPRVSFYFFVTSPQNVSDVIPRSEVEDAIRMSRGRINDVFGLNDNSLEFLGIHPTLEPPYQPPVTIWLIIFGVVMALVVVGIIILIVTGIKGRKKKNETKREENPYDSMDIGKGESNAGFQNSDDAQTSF

Cc1cc(Cn2cnc3c2C[C@@H](C(=O)O)N(C(=O)C(c2ccccc2)c2ccccc2)C3)ccc1N(C)C [PD123319]
Kidney NADPH oxidase activity, percent of sham-operated ACE2KO mice ([1]; male ACE2KO mice, 35 weeks old, PD123319 2 mg/kg/day subcutaneous osmotic minipump, 14 days, n = 8, sham-operated ACE2KO 100 ± 21%, P = 0.541, mean ± SEM, SEM): 83 ± 17%

CC(C)C[C@H](N[C@@H](Cc1cncn1Cc1cc(Cl)cc(Cl)c1)C(=O)O)C(=O)O [MLN-4760]
Effect of co-incubation on Ang II degradation rate by WT kidney cortex lysates (ACE2): significant decrease in Ang II degradation rate

CC[C@H](C)[C@H](NC(=O)[C@H](Cc1ccc(O)cc1)NC(=O)[C@@H](NC(=O)[C@H](CCCNC(=N)N)NC(=O)[C@@H](N)CC(=O)O)C(C)C)C(=O)N[C@@H](Cc1cnc[nH]1)C(=O)N1CCC[C@H]1C(=O)N[C@@H](Cc1ccccc1)C(=O)O [Ang II, angiotensin II]
Ang II degradation by WT versus ACE2KO kidney cortex lysates (in words) ([2]; 6 and 24 h of incubation, n = 5 per group, P < 0.05): kidney lysates from WT mice degrade significantly more Ang II than the lysates obtained from ACE2KO | metabolised ([2]; mouse, kidney cortex lysates (ACE2 KO, with MLN-4760 (ACE2 inhibitor, 10^-6 mol/L) in the WT lysates), lysates of ACE2 KO or WT + MLN-4760 (10^-6 mol/L), constant shaking, up to 24 h, n = 5, read-out: Proportion of Ang II degraded in kidney cortex lysates despite the lack of ACE2): ~50%

CCCCc1nc(Cl)c(CO)n1Cc1ccc(-c2ccccc2-c2nn[nH]n2)cc1 [losartan]
Effect on kidney NADPH oxidase activity in ACE2KO (in words) ([1]; ACE2KO mice, losartan 30 mg/kg/day): normalization of NADPH oxidase activity | Kidney cortex NADPH oxidase activity, percent of WT controls ([1]; losartan 10 mg/kg/day in drinking water, n = 4, vehicle WT 100 ± 20%, P < 0.05, vehicle ACE2KO 181 ± 24%, mean ± SEM, SEM): 201 ± 22% | Kidney cortex NADPH oxidase activity, percent of WT controls ([1]; losartan 30 mg/kg/day in drinking water, n = 5, vehicle WT 100 ± 18% (n = 10), P = 0.709, mean ± SEM, SEM): 83 ± 29%
